# Test results: patent US8754226B2, “Piperidinyl-substituted lactams as GPR119 modulators” (Array BioPharma Inc., priority 2010, dated 2014)
# Where a name gives a salt, the structure may show the parent alone.
# Test system: modified version of the GPR119 receptor (94% identity to human receptor)
# Experiment: cAMP production assay (LANCE cAMP kit, TR-FRET) in HEK-293 cells
# Type: cell-based
# Settings: for cAMP production in HEK-293 cells: HEK-293 cells stably expressing modified GPR119, test compounds 0.2 nM to 10 μM, one-hour incubation at ambient temperature; for Fold over baseline: increase in cAMP relative to basal levels, agonist activity if 1.5-fold or greater
# In short: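 Doxycycline-induced (1 μg/mL, overnight) HEK-293 cells expressing modified GPR119 were thawed, 2000 cells/well, and exposed to compounds (0.2 nM-10 μM final, 0.5% DMSO) for 1 h at ambient temperature in HBSS/HEPES/BSA. cAMP was measured by LANCE TR-FRET against a standard curve. Agonism was defined as ≥1.5-fold over basal.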
smiles,measurement,value
O=C(c1ccc(O[C@H]2CCN(C3CCN(c4ncc(C(F)(F)F)cc4Cl)CC3)C2=O)c(F)c1)N1CCCC1 [Example 151],cAMP production in HEK-293 cells,35.8 nmol
same,Fold over baseline,4.7
"CS(=O)(=O)c1ccc(N[C@H]2CCN(C3CCN(c4cnc(Cl)cn4)CC3)C2=O)c(F)c1 [Example 4, (S)-1-(1-(5-chloropyrazin-2-yl)piperidin-4-yl)-3-(2-fluoro-4-(methylsulfonyl)phenylamino)pyrrolidin-2-one]",cAMP production in HEK-293 cells,27.3 nmol
same,Fold over baseline,4.1
"CS(=O)(=O)c1ccc(O[C@H]2CCN(C3CCN(c4ncc(Cl)cc4F)CC3)C2=O)c(F)c1 [Example 139, (S)-1-(1-(5-chloro-3-fluoropyridin-2-yl)piperidin-4-yl)-3-(2-fluoro-4-(methylsulfonyl)phenoxy) pyrrolidin-2-one]",cAMP production in HEK-293 cells,26.6 nmol
same,Fold over baseline,5.0
"CS(=O)(=O)c1ccc(NC2CCN(C3CCN(c4ccc(-c5ccccc5)cn4)CC3)C2=O)c(F)c1 (stereo not drawn) [Example 25, 3-(2-fluoro-4-(methylsulfonyl)phenylamino)-1-(1-(5-phenylpyridin-2-yl)piperidin-4-yl)pyrrolidin-2-one]",cAMP production in HEK-293 cells,11.6 nmol
same,Fold over baseline,2.9
"CS(=O)(=O)c1ccc(N[C@H]2CCN(C3CCN(c4ncc(-c5cn[nH]c5)cn4)CC3)C2=O)c(F)c1 [Example 31, (S)-1-(1-(5-(1H-pyrazol-4-yl)pyrimidin-2-yl)piperidin-4-yl)-3-(2-fluoro-4-(methylsulfonyl)phenylamino)pyrrolidin-2-one]",cAMP production in HEK-293 cells,14.5 nmol
same,Fold over baseline,2.9
"CCc1cnc(N2CCC(N3CCC[C@H](Nc4cc(F)c(S(C)(=O)=O)cc4F)C3=O)CC2)nc1 [Example 45, (S)-3-(2,5-difluoro-4-(methylsulfonyl)phenylamino)-1′-(5-ethylpyrimidin-2-yl)-[1,4′-bipiperidin]-2-one]",cAMP production in HEK-293 cells,13.3 nmol
same,Fold over baseline,2.3
"CCc1cnc(N2CCC(N3CC[C@H](Nc4cc(C)c(S(C)(=O)=O)cc4F)C3=O)CC2)cn1 [Example 2, (S)-1-(1-(5-ethylpyrazin-2-yl)piperidin-4-yl)-3-(2-fluoro-5-methyl-4-(methylsulfonyl)phenylamino)pyrrolidin-2-one]",cAMP production in HEK-293 cells,27.9 nmol
same,Fold over baseline,4.8
"CCc1cnc(N2CCC(N3CC[C@H](Nc4cc(C)c(S(C)(=O)=O)cc4F)C3=O)CC2)nc1 [Example 35, (S)-1-(1-(5-ethylpyrimidin-2-yl)piperidin-4-yl)-3-(2-fluoro-5-methyl-4-(methylsulfonyl)phenylamino)pyrrolidin-2-one]",cAMP production in HEK-293 cells,14.5 nmol
same,Fold over baseline,4.1
"CS(=O)(=O)c1cc(F)c(N[C@H]2CCN(C3CCN(c4cnc(Cl)cn4)CC3)C2=O)c(F)c1 [Example 20, (S)-1-(1-(5-chloropyrazin-2-yl)piperidin-4-yl)-3-(2,6-difluoro-4-(methylsulfonyl)phenylamino) pyrrolidin-2-one]",cAMP production in HEK-293 cells,24.4 nmol
same,Fold over baseline,6.5
"CS(=O)(=O)c1ccc(O[C@@H]2C(=O)N(C3CCN(c4cnc(Cl)cn4)CC3)C[C@@H]2O)c(F)c1 [Example 39, (3S,4S)-1-(1-(5-chloropyrazin-2-yl)piperidin-4-yl)-3-(2-fluoro-4-(methylsulfonyl)phenoxy)-4-hydroxypyrrolidin-2-one]",cAMP production in HEK-293 cells,20.6 nmol
same,Fold over baseline,3.7
"CS(=O)(=O)c1ccc(O[C@H]2CCN(C3CCN(c4ncc(C(F)(F)F)cc4Cl)CC3)C2=O)cn1 [Example 143, (S)-1-(1-(3-chloro-5-(trifluoromethyl)pyridin-2-yl)piperidin-4-yl)-3-(6-(methylsulfonyl)pyridin-3-yloxy) pyrrolidin-2-one]",cAMP production in HEK-293 cells,13.3 nmol
same,Fold over baseline,4.3
"Cc1ccccc1-c1cnc(N2CCC(N3CCC[C@H](Nc4cc(F)c(S(C)(=O)=O)cc4F)C3=O)CC2)cn1 [Example 61, (S)-3-(2,5-difluoro-4-(methylsulfonyl)phenylamino)-1′-(5-o-tolylpyrazin-2-yl)-[1,4′-bipiperidin]-2-one]",cAMP production in HEK-293 cells,19.6 nmol
same,Fold over baseline,3.1
"CCc1cnc(N2CCC(N3CCCC(Nc4ccc(S(C)(=O)=O)cc4F)C3=O)CC2)c(C)c1 (stereo not drawn) [Example 77, 1′-(5-ethyl-3-methylpyridin-2-yl)-3-(2-fluoro-4-(methylsulfonyl)phenylamino)-[1,4′-bipiperidin]-2-one]",cAMP production in HEK-293 cells,21.3 nmol
same,Fold over baseline,2.5
"CCc1cnc(N2CCC(N3CCC(Oc4ccc(-n5cnnn5)nc4)C3=O)CC2)nc1 (stereo not drawn) [Example 66, 3-(6-(1H-tetrazol-1-yl)pyridin-3-yloxy)-1-(1-(5-ethylpyrimidin-2-yl)piperidin-4-yl)pyrrolidin-2-one]",cAMP production in HEK-293 cells,4.9 nmol
same,Fold over baseline,1.6
"CS(=O)(=O)c1ccc(N[C@H]2CCN(C3CCN(c4ccc(C#N)cn4)CC3)C2=O)c(F)c1 [Example 112, (S)-6-(4-(3-(2-fluoro-4-(methylsulfonyl)phenyl-amino)-2-oxopyrrolidin-1-yl)piperidin-1-yl)nicotinonitrile]",cAMP production in HEK-293 cells,22.5 nmol
same,Fold over baseline,1.7
"Cc1cc(S(C)(=O)=O)ncc1N[C@H]1CCN(C2CCN(c3ncc(Cl)cc3F)CC2)C1=O [Example 121, (S)-1-(1-(5-chloro-3-fluoropyridin-2-yl)piperidin-4-yl)-3-(4-methyl-6-(methylsulfonyl)pyridin-3-ylamino) pyrrolidin-2-one]",cAMP production in HEK-293 cells,10.6 nmol
same,Fold over baseline,2.5
"CS(=O)(=O)c1cc(F)c(N[C@H]2CCN(C3CCN(c4cnc(Br)cn4)CC3)C2=O)cc1F [Example 15, (S)-1-(1-(5-bromopyrazin-2-yl)piperidin-4-yl)-3-(2,5-difluoro-4-(methylsulfonyl)phenylamino)pyrrolidin-2-one]",cAMP production in HEK-293 cells,24.2 nmol
same,Fold over baseline,4.2
"CC(C)c1cnc(N2CCC(N3CCC(Oc4cc(F)c(S(C)(=O)=O)cc4F)C3=O)CC2)nc1 (stereo not drawn) [Example 86, 3-(2,5-difluoro-4-(methylsulfonyl)phenoxy)-1-(1-(5-isopropylpyrimidin-2-yl)piperidin-4-yl)pyrrolidin-2-one]",cAMP production in HEK-293 cells,5.9 nmol
same,Fold over baseline,1.9
"CSc1cnc(N2CCC(N3CC[C@H](Nc4ccc(S(C)(=O)=O)cc4F)C3=O)CC2)nc1 [Example 30, (S)-3-(2-fluoro-4-(methylsulfonyl)phenylamino)-1-(1-(5-(methylthio)pyrimidin-2-yl)piperidin-4-yl)pyrrolidin-2-one]",cAMP production in HEK-293 cells,6.6 nmol
same,Fold over baseline,2.0
"Cc1cc(S(C)(=O)=O)ncc1N[C@H]1CCN(C2CCN(c3cnc(Cl)cn3)CC2)C1=O [Example 123, (S)-1-(1-(5-chloropyrazin-2-yl)piperidin-4-yl)-3-(4-methyl-6-(methylsulfonyl)pyridin-3-ylamino) pyrrolidin-2-one]",cAMP production in HEK-293 cells,15.8 nmol
same,Fold over baseline,3.5
"CS(=O)(=O)c1ccc(O[C@H]2CCN(C3CCN(c4ncc(C(F)(F)F)cc4F)CC3)C2=O)c(F)c1 [Example 138, (S)-3-(2-fluoro-4-(methyl-sulfonyl)phenoxy)-1-(1-(3-fluoro-5-(trifluoro-methyl)pyridin-2-yl)piperidin-4-yl) pyrrolidin-2-one]",cAMP production in HEK-293 cells,38.6 nmol
same,Fold over baseline,6.7
"CCc1cnc(N2CCC(N3CC[C@H](N(C)c4cc(F)c(S(C)(=O)=O)cc4F)C3=O)CC2)nc1 [Example 37, (S)-3-((2,5-difluoro-4-(methylsulfonyl)phenyl)(methyl)amino)-1-(1-(5-ethylpyrimidin-2-yl)piperidin-4-yl)pyrrolidin-2-one trifluoroacetate]",cAMP production in HEK-293 cells,23.4 nmol
same,Fold over baseline,3.4
"CS(=O)(=O)c1cc(F)c(N[C@H]2CCN(C3CCN(c4ncc(Cl)cn4)CC3)C2=O)cc1F [Example 6, (S)-3-(2,5-difluoro-4-(methyl-sulfonyl)phenylamino)-1-(1-(5-chloropyrimidin-2-yl)piperidin-4-yl)pyrrolidin-2-one]",cAMP production in HEK-293 cells,9.2 nmol
same,Fold over baseline,1.8
"Cc1cc(S(C)(=O)=O)ncc1N[C@H]1CCN(C2CCN(c3ncc(Cl)cc3Cl)CC2)C1=O [Example 125, (S)-1-(1-(3,5-dichloro-pyridin-2-yl)piperidin-4-yl)-3-(4-methyl-6-(methylsulfonyl)pyridin-3-ylamino)pyrrolidin-2-one]",cAMP production in HEK-293 cells,9.0 nmol
same,Fold over baseline,2.0
"CS(=O)(=O)c1cc(F)c(O[C@H]2CCN(C3CCN(c4ncc(-c5ccccc5)cn4)CC3)C2=O)cc1F [Example 92, S-3-(2,5-difluoro-4-(methylsulfonyl)phenoxy)-1-(1-(5-phenylpyrimidin-2-yl)piperidin-4-yl)pyrrolidin-2-one]",cAMP production in HEK-293 cells,16.6 nmol
same,Fold over baseline,3.0
"CS(=O)(=O)c1cc(F)c(N[C@H]2CCCCN(C3CCN(c4cnccn4)CC3)C2=O)cc1F.Cl [Example 83, (S)-3-(2,5-difluoro-4-(methylsulfonyl)phenylamino)-1-(1-(pyrazin-2-yl)piperidin-4-yl)azepan-2-one hydrochloride]",cAMP production in HEK-293 cells,13.0 nmol
same,Fold over baseline,2.9
"CS(=O)(=O)c1cc(F)c(O[C@H]2CCCN(C3CCN(c4ncc(C(F)(F)F)cc4F)CC3)C2=O)cc1F [Example 163, (S)-3-(2,5-difluoro-4-(methylsulfonyl)phenoxy)-1′-(3-fluoro-5-(trifluoromethyl)pyridin-2-yl)-[1,4′-bipiperidin]-2-one]",cAMP production in HEK-293 cells,18.3 nmol
same,Fold over baseline,3.9
